In PubChem BioAssay (NCI) one finds TGI data, which are given here for 17 molecules.

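Values below derive from 48-hour exposures of cells grown in 96-well plates, with endpoints linearly interpolated between the two concentrations bracketing the appropriate inhibition level. TGI marks complete inhibition of growth.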 Where only a bound is given, the exact number is not on record here.

A word on the TGI: it is the concentration giving total growth inhibition.

Among the test systems are HT29 colon; SR leukemia; MCF7 breast; SF-539 CNS; 786-0 renal; A498 renal; MOLT-4 leukemia; SK-OV-3 ovarian; T-47D breast; HS 578T breast.
What all share (assay): DTP human tumour cell line panel, 48 h

Consider `CSc1nc2c(c(=O)n1C)N=C(c1ccccc1)[C@H](C(CC(=O)c1ccccc1)c1ccccc1)C(c1ccccc1)N2` (some centres not stated), for which the TGI with HT29 colon, in the experiment on SR leukemia, in the experiment with MCF7 breast, with SF-539 CNS, in the experiment on 786-0 renal and with A498 renal was greater than 100 µM in each case. The molecule also gave a TGI in the experiment with MOLT-4 leukemia greater than 100 µM.

For the molecule `Clc1ccc(OCc2nnc(CCCCCCCCc3nnc(COc4ccc(Cl)cc4)n3Nc3ccccc3)n2Nc2ccccc2)cc1`, the TGI with HT29 colon was 34.3 µM; in the experiment with SK-OV-3 ovarian it was greater than 100 µM; in the experiment on MCF7 breast, greater than 100 µM; in the experiment on SF-539 CNS it was 40.1 µM; with T-47D breast it was greater than 100 µM; in the experiment on HS 578T breast it was greater than 100 µM. Further, the TGI in the experiment with 786-0 renal was 58 µM; with A498 renal it was greater than 100 µM; with MOLT-4 leukemia, greater than 100 µM.

Take `CC1(C)OCC2OC3([C@H]4OC(C)(C)O[C@@H]4CO)OC(C)(C)OC3C2O1` (some centres not stated): the TGI in the experiment with HT29 colon, in the experiment on SR leukemia, with MCF7 breast, in the experiment on SF-539 CNS, in the experiment on T-47D breast and in the experiment on 786-0 renal was greater than 100 µM each time. In addition, the total growth inhibition concentration (TGI) in the experiment on A498 renal and with MOLT-4 leukemia was greater than 100 µM each time.

For the molecule `Cc1cc2ncc3c(=O)n(NS(=O)(=O)c4ccc(N)cc4)ccc3n2n1`, the TGI in the experiment on HT29 colon, in the experiment with SK-OV-3 ovarian, with MCF7 breast, in the experiment with SF-539 CNS, in the experiment with T-47D breast and in the experiment on HS 578T breast was greater than 100 µM in each case. The TGI in the experiment on 786-0 renal, in the experiment on A498 renal and in the experiment with MOLT-4 leukemia was greater than 100 µM in each case.

Regarding `OC1(c2ccc(Cl)cc2)c2ccc3ccccc3c2C2=N[C@H]3CCCC[C@@H]3N21` (some centres not stated), the TGI in the experiment with SK-OV-3 ovarian is 65.3 µM; in the experiment with MCF7 breast, greater than 100 µM; in the experiment on SF-539 CNS, 43.7 µM; with T-47D breast, 26.5 µM; in the experiment on HS 578T breast it was 3.94 µM; in the experiment on A498 renal, 52.7 µM. The TGI with MOLT-4 leukemia is greater than 100 µM.

Take `COc1ccc(Nc2nc3c([nH]2)c(=O)n(C)c(=O)n3C)cc1`: the TGI in the experiment with HT29 colon, with SK-OV-3 ovarian, in the experiment with SR leukemia, in the experiment on MCF7 breast, in the experiment on T-47D breast and in the experiment on 786-0 renal was greater than 10 µM in each case. The concentration for total growth inhibition (TGI) in the experiment with MOLT-4 leukemia is greater than 10 µM.

Consider `O=C(O)C(CS)N=c1c2ccccc2n(O)c2ccccc12` (configuration not stated), for which the TGI in the experiment on HT29 colon, in the experiment with SK-OV-3 ovarian, in the experiment with 786-0 renal, with A498 renal and in the experiment with MOLT-4 leukemia was greater than 100 µM each time.

As to `C=c1c(OC)c(OC)c(O)c2c1=c1cc([N+](=O)[O-])cc(OC)c1=N2`, the TGI in the experiment on HT29 colon, in the experiment with SK-OV-3 ovarian, with MCF7 breast, with SF-539 CNS, in the experiment on T-47D breast and in the experiment on HS 578T breast was greater than 100 µM in each case. Moreover, the TGI in the experiment with 786-0 renal, in the experiment on A498 renal and in the experiment with MOLT-4 leukemia was greater than 100 µM each time.

As for `O=C1NC2OC(CO)C(O)C(O1)C2O` (configuration not stated), the TGI with HT29 colon, in the experiment with SK-OV-3 ovarian, with SR leukemia, with SF-539 CNS, with 786-0 renal and in the experiment on A498 renal was greater than 100 µM throughout. In addition, in the experiment with MOLT-4 leukemia, the concentration for total growth inhibition (TGI) is greater than 100 µM.

With `CN(C)CCn1c(=O)c2ccc(NCCCN(C)CCCNc3ccc4c(=O)n(CCN(C)C)c(=O)n5c6ccc([N+](=O)[O-])cc6c(=O)c3c45)c3c(=O)c4cc([N+](=O)[O-])ccc4n(c1=O)c23`, the TGI was 0.726 µM in the experiment on HT29 colon; 0.886 µM in the experiment with SK-OV-3 ovarian; 0.608 µM in the experiment with MCF7 breast; 0.851 µM in the experiment with SF-539 CNS; greater than 100 µM in the experiment on T-47D breast; 0.385 µM with 786-0 renal. The molecule further returned a TGI in the experiment with A498 renal of 0.398 µM.

Turning to `Nc1ccc2[nH]c(-c3cccc(Cl)c3)cc(=O)c2c1`, the total growth inhibition concentration (TGI) in the experiment with HT29 colon is 29.5 µM; in the experiment on SK-OV-3 ovarian, greater than 100 µM; in the experiment with MCF7 breast it was greater than 100 µM; with SF-539 CNS it was 5.15 µM; in the experiment with T-47D breast, greater than 100 µM; with HS 578T breast, greater than 100 µM. The TGI with 786-0 renal and with MOLT-4 leukemia was greater than 100 µM in each case.

As to `C=CCOCCCCC(C(C)=O)C(=O)OC` (configuration not stated), the TGI in the experiment on HT29 colon, in the experiment on SK-OV-3 ovarian, with SR leukemia, in the experiment with SF-539 CNS, in the experiment on 786-0 renal and in the experiment with A498 renal was greater than 100 µM throughout. Further, in the experiment on MOLT-4 leukemia, the TGI was greater than 100 µM.

As for `COC(=O)Cc1c([C@H]2[C@H](CC(=O)OC)c3ccccc3N2C(C)=O)[nH]c2ccccc12`, the TGI in the experiment on HT29 colon, with SK-OV-3 ovarian, with SF-539 CNS, with T-47D breast, in the experiment with HS 578T breast and in the experiment on 786-0 renal was greater than 100 µM throughout. For the same molecule, the TGI in the experiment with A498 renal and in the experiment on MOLT-4 leukemia was greater than 100 µM in each case.

For the molecule `CC(C)(C)C1CCC2(CC1)c1[nH]c3ccccc3c1C1(CCC(C(C)(C)C)CC1)c1[nH]c3ccccc3c12` (configuration not stated), the TGI with HT29 colon, with SK-OV-3 ovarian, in the experiment on SF-539 CNS, in the experiment on 786-0 renal, in the experiment on A498 renal and in the experiment on MOLT-4 leukemia was greater than 100 µM in each case.

On to `Cc1cn([C@@H]2C[C@H]2CO)c(=O)[nH]c1=O`, for which the TGI with HT29 colon, in the experiment on SR leukemia, in the experiment with MCF7 breast, in the experiment with SF-539 CNS, with T-47D breast and with 786-0 renal was greater than 100 µM each time. Also, the TGI in the experiment on A498 renal and in the experiment with MOLT-4 leukemia was greater than 100 µM in each case.

Take `O=C(N/N=C/c1ccco1)c1cc(I)cc(I)c1O`: the TGI in the experiment on HT29 colon was greater than 50 µM; in the experiment with MCF7 breast, greater than 50 µM; in the experiment with SF-539 CNS it was 26 µM; in the experiment with T-47D breast, greater than 50 µM; in the experiment on HS 578T breast, greater than 50 µM; with 786-0 renal, 37.4 µM. Further, the total growth inhibition concentration (TGI) was 32.8 µM in the experiment on A498 renal and greater than 50 µM with MOLT-4 leukemia.

For the molecule `COC(=O)C1CC2(c3ccccc3)C(=O)c3ccccc3N2O1` (configuration not stated), the TGI with HT29 colon is greater than 100 µM; with SK-OV-3 ovarian, greater than 100 µM; in the experiment with SR leukemia it was 65.3 µM; in the experiment on SF-539 CNS it was greater than 100 µM; with 786-0 renal it was greater than 100 µM; in the experiment with A498 renal, greater than 100 µM. Besides, in the experiment on MOLT-4 leukemia, the TGI was found to be 75.8 µM.
